Data from ChEMBL document CHEMBL3639260, “5-membered nitrogen containing heterocyclic derivatives and pharmaceutical compositions comprising the same” (2015).

Target: Xanthine dehydrogenase/oxidase (Bos taurus, UniProt P80457)
Experiment: Inhibition Assay: Xanthine oxidase (from bovine milk, Sigma) was prepared with phosphate-buffered saline (PBS) at 0.02 units/mL, and then the solution was added to 96 well plates at 50 μL/well. In addition, test compounds diluted with PBS were added at 50 μL/well. Xanthine (Wako) at 200 μM prepared with PBS was added at 100 μL/well, and the reaction was conducted for 10 minutes at room temperature. Absorbance at 290 nm was measured using a microplate reader SpectraMax Plus 384 (Molecular device). The absorbance under a condition without xanthine is 0%, and control without test compounds is 100%.

Xanthine dehydrogenase/oxidase, sequence (P80457 whole entry): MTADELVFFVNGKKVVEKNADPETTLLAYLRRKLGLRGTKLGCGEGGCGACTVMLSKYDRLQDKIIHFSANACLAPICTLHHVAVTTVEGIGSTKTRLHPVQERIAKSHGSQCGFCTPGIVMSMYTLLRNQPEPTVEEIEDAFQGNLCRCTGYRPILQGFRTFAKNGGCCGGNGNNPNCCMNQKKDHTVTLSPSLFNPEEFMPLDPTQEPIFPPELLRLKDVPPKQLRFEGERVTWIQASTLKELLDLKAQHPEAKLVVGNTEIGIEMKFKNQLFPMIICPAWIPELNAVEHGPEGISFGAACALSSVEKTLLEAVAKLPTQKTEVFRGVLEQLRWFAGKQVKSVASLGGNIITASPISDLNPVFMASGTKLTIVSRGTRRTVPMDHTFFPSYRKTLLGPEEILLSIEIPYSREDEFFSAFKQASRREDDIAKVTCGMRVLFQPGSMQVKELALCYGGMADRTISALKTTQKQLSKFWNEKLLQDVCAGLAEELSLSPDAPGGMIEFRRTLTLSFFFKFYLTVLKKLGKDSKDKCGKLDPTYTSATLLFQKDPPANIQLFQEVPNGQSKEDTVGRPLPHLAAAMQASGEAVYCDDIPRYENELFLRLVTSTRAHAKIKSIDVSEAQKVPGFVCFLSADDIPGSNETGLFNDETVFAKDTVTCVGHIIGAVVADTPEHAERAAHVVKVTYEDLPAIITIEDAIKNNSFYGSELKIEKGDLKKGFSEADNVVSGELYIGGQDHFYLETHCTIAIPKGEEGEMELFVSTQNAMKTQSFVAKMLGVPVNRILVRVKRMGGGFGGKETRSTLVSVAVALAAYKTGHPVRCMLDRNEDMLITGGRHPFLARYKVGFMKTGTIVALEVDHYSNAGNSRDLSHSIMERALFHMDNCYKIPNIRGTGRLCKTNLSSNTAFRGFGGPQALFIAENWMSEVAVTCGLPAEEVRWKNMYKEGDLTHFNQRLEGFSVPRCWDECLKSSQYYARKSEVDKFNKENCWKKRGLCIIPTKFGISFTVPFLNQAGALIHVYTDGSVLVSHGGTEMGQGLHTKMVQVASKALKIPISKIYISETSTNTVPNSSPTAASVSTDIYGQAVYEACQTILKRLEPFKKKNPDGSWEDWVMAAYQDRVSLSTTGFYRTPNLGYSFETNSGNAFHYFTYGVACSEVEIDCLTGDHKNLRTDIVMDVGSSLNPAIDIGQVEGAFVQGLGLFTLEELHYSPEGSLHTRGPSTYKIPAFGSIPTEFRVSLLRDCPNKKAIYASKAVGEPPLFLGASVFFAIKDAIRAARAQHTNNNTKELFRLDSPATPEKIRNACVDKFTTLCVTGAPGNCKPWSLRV

IC50 [nM] | Compound
47 | N#Cc1cn(-c2ccc(C(=O)O)cc2)cc1-c1ccccc1OCCOc1ccccc1
63.2 | N#Cc1cn(-c2ccc(C(=O)O)cc2)cc1-c1ccc(OCCCO)cc1
